Results taken from patent publication US20190203230A1, “POROUS MEMBRANE-BASED MACROMOLECULE DELIVERY SYSTEM” (NOVARTIS AG, priority 2016, published 2019).

Test system: HbF
Assay: Erythroid differentiation and HbF detection by flow cytometry
Type: cell-based, human
Settings: erythroid differentiation, flow cytometry (days 7 and 14 collected; day of the values not stated); UNC0638 at 0.5 μM
Experimental: The present teachings (herein also referred to as TRIAMF for brevity) were applied for the delivery of RNPs consisting of guides targeting the HBG […] to recapitulate the genotype of a form of hereditary persistent fetal hemoglobin found in many patients. […] Through a combination of next generation sequencing (NGS) and quantitative PCR (qPCR), editing efficiency at the target site was determined to be a total average of 63% total editing.
FIG. 20 depicts percentage of HbF cells at D7 and D14 of erythroid differentiation protocol of WT, mock treated, HBG edited, and UNC0638 (Blood. 2015, July 30:126(5):665-72) positive control treated cells. Cells were analyzed by fixation and staining of CD235a,CD71, and HbF. The cells were collected on days 7 and 14 and stained with CD235a, CD71, and fetal hemoglobin, and analyzed with flow cytometry. […]

COc1cc2c(NC3CCN(C(C)C)CC3)nc(C3CCCCC3)nc2cc1OCCCN1CCCC1 [UNC0638]
cells expressed HbF: 92%
